Experimental data as given in the supplement of paper PMC11061612.

Legend:
Experiment in all cases: combination Emax (second highest fraction inhibited in the dose matrix, 72 h); higher = more inhibition; extreme values may be limits of the assay
[1] = system: NCI-H513 (Other Solid Carcinomas)
In short: (§1)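 After 24 hours at 37°C and 5% CO2 in 1536-well plates, cells in DMEM/F12 or RPMI plus 10% FBS received two-drug dose matrices for 72 hours. Viability came from CellTiter-Glo 2.0 luminescence and was scaled as inhibition, anchored at 0 by vehicle wells and at 1 by blank wells. Combination Emax is taken as the second-highest inhibition in the matrix, and Bliss excess as the observed combination effect less EA + EB − EA·EB, with EA and EB the single-agent effects.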

[2] = system: OCUM-1 (Gastric Carcinoma)
In short: as §1

[3] = system: ASH-3 (Thyroid Gland Carcinoma)
In short: as §1

BT-20 (Breast Carcinoma) = system: BT-20 (Breast Carcinoma)
In short: as §1

NB7 (Neuroblastoma) = system: NB7 (Neuroblastoma)
In short: as §1

[4] = system: PF-382 (T-Lymphoblastic Leukemia)
In short: as §1

[5] = system: HC-1 (Other Blood Carcinomas)
In short: as §1

NH-12 (Neuroblastoma) = system: NH-12 (Neuroblastoma)
In short: as §1

[6] = system: SCC-3 (B-Cell Non-Hodgkin's Lymphoma)
In short: as §1

GOTO (Neuroblastoma) = system: GOTO (Neuroblastoma)
In short: as §1

EW-18 (Ewing's Sarcoma) = system: EW-18 (Ewing's Sarcoma)
In short: as §1

EW-13 (Ewing's Sarcoma) = system: EW-13 (Ewing's Sarcoma)
In short: as §1

[7] = system: KLE (Endometrial Carcinoma)
In short: as §1

[8] = system: NCI-H322M (Lung Adenocarcinoma)
In short: as §1

[9] = system: DG-75 (Burkitt's Lymphoma)
In short: as §1

[10] = system: PFSK-1 (Other Solid Carcinomas)
In short: as §1

[11] = system: NCI-H2347 (Lung Adenocarcinoma)
In short: as §1

U-87-MG (Glioblastoma) = system: U-87-MG (Glioblastoma)
In short: as §1

[12] = system: OCUB-M (Breast Carcinoma)
In short: as §1

[13] = system: TGBC11TKB (Gastric Carcinoma)
In short: as §1

With `CC1(C)CCC(CN2CCN(c3ccc(C(=O)NS(=O)(=O)c4ccc(NCC5CCOCC5)c([N+](=O)[O-])c4)c(Oc4cnc5[nH]ccc5c4)c3)CC2)=C(c2ccc(Cl)cc2)C1` [Venetoclax] + Cc1cc2ncnn2cc1Nc1ncc2c(n1)n(C1CCOCC1)c(=O)n2C [AZD7648] (first compound max 1 µM, 7x7, partner max 10 µM) the “combination Emax” value [1] was 0.297, the “combination Emax” value [2] was 0.216 and the “combination Emax” value [3] was 0.263. The “combination Emax” value (BT-20 (Breast Carcinoma)) was 0.374, the “combination Emax” value (NB7 (Neuroblastoma)) was 0.0987 and the “combination Emax” value [4] was 0.355. For the same compound, the “combination Emax” value [5] was 0.481, the “combination Emax” value (NH-12 (Neuroblastoma)) was 0.538 and the “combination Emax” value [6] was 0.214. For the same compound, the “combination Emax” value (GOTO (Neuroblastoma)) was 0.434, the “combination Emax” value (EW-18 (Ewing's Sarcoma)) was 0.455 and the “combination Emax” value (EW-13 (Ewing's Sarcoma)) was 0.0496. For the same compound, the “combination Emax” value [7] was 0.444, the “combination Emax” value [8] was 0.414 and the “combination Emax” value [9] was 0.317. For the same compound, the “combination Emax” value [10] was 0.489, the “combination Emax” value [11] was 0.194 and the “combination Emax” value (U-87-MG (Glioblastoma)) was 0.354. For the same compound, the “combination Emax” value [12] was 0.383 and the “combination Emax” value [13] was 0.133.
With `Cn1cnc2c(F)c(Nc3ccc(Br)cc3Cl)c(C(=O)NOCCO)cc21` [Selumetinib] + CC(C)n1c(=O)n(C)c2cnc3cc(F)c(-c4ccc(OCCCN5CCCCC5)nc4)cc3c21 [AZD1390] (first compound max 10 µM, 7x7, partner max 0.3 µM) the “combination Emax” value [1] was 0.22, the “combination Emax” value [2] was 0.951 and the “combination Emax” value [3] was 0.304. For the same compound, the “combination Emax” value (BT-20 (Breast Carcinoma)) was 0.252, the “combination Emax” value (NB7 (Neuroblastoma)) was 0.0793 and the “combination Emax” value [4] was 0.211. For the same compound, the “combination Emax” value [5] was 0.456, the “combination Emax” value (NH-12 (Neuroblastoma)) was 0.482 and the “combination Emax” value [6] was 0.369. The “combination Emax” value (GOTO (Neuroblastoma)) was 0.283, the “combination Emax” value (EW-18 (Ewing's Sarcoma)) was 0.28 and the “combination Emax” value (EW-13 (Ewing's Sarcoma)) was 0.0488. For the same compound, the “combination Emax” value [7] was 0.178, the “combination Emax” value [8] was 0.527 and the “combination Emax” value [9] was 0.277. For the same compound, the “combination Emax” value [10] was 0.244, the “combination Emax” value [11] was 0.308 and the “combination Emax” value (U-87-MG (Glioblastoma)) was 0.215. The “combination Emax” value [12] was 0.0283 and the “combination Emax” value [13] was 0.507.
`COc1cc2ncnc(Nc3ccc(F)c(Cl)c3)c2cc1OCCCN1CCOCC1` [Gefitinib] + CC(C)n1c(=O)n(C)c2cnc3cc(F)c(-c4ccc(OCCCN5CCCCC5)nc4)cc3c21 [AZD1390] (first compound max 10 µM, 7x7, partner max 0.3 µM) was tested, and the “combination Emax” value [1] was 0.268, the “combination Emax” value [2] was 0.148 and the “combination Emax” value [3] was 0.146. For the same compound, the “combination Emax” value (BT-20 (Breast Carcinoma)) was 0.244, the “combination Emax” value (NB7 (Neuroblastoma)) was 0.136 and the “combination Emax” value [4] was 0.323. For the same compound, the “combination Emax” value [5] was 0.387, the “combination Emax” value (NH-12 (Neuroblastoma)) was 0.121 and the “combination Emax” value [6] was 0.348. For the same compound, the “combination Emax” value (GOTO (Neuroblastoma)) was 0.257, the “combination Emax” value (EW-18 (Ewing's Sarcoma)) was 0.229 and the “combination Emax” value (EW-13 (Ewing's Sarcoma)) was 0.117. For the same compound, the “combination Emax” value [7] was 0.442, the “combination Emax” value [8] was 0.718 and the “combination Emax” value [9] was 0.373. For the same compound, the “combination Emax” value [10] was 0.265, the “combination Emax” value [11] was 0.0611 and the “combination Emax” value (U-87-MG (Glioblastoma)) was 0.0691. For the same compound, the “combination Emax” value [12] was 0.154 and the “combination Emax” value [13] was 0.296.
